This note sets out measurements from patent US7125871B2, “Excitatory amino acid receptor modulators” (Eli Lilly and Company, priority 2000, dated 2006).

The experiment concerns the target T1, mGluR2 (Homo sapiens, UniProt Q14416).
T1 construct: expressed in transfected cells
In words: reversal of [3H] LY341495 binding at mGluR2. Conditions: [3H] LY341495 radioligand; cells expressing human mGluR subtypes. Here is the method: (D. D. Schoepp, et al., Neuropharmacol., 1996, 35, 1661–1672 and 1997, 36, 111).
LY341495 binding with a Ki of less than 30,000 nM at […]. […] (LY341495 is described in Ornstein et al., J. Med. Chem., 1998, 41, 346–357 and J. Med. Chem., 1998, 41, 358 to 378).

T1 sequence (Q14416 19-872): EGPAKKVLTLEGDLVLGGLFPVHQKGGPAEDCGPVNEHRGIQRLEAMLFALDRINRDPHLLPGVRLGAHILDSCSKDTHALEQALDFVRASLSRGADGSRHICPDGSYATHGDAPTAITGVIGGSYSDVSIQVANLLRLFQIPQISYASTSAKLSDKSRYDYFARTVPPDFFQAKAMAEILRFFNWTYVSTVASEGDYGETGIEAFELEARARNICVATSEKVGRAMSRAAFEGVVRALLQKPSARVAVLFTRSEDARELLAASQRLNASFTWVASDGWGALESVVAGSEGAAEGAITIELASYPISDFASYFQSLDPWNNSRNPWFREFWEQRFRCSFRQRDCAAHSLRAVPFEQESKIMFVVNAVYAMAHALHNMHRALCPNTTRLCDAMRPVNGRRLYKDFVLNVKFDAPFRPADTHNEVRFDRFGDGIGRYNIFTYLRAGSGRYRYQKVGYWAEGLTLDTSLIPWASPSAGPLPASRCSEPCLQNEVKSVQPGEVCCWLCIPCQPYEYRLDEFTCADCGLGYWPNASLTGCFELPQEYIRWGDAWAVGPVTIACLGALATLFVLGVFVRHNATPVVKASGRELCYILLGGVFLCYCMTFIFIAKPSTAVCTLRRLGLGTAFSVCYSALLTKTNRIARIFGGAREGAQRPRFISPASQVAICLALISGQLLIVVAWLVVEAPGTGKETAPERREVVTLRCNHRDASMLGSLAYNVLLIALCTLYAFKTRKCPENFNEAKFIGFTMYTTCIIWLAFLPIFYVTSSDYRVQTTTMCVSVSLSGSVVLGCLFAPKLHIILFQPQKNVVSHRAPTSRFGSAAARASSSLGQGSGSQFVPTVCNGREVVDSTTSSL

In general, Ki refers to a measure of affinity in units of concentration, obtained from inhibition or displacement. On to `N[C@H](C(=O)O)[C@@H]1[C@@H](C(=O)O)[C@@H]1C(=O)NCc1ccccc1` (racemic) [Example 1, (2SR, 1′SR, 2′RS, 3′RS)-2-[2′-carboxy-3′-(phenylmethylaminocarbonyl)cyclopropyl]glycine], for which the inhibitory constant (Ki) worked out at 3.42 µM.
